Data published in ChEMBL document CHEMBL3867425, “Synthesis and cytotoxicity evaluation of aryl triazolic derivatives and their hydroxymethine homologues against B16 melanoma cell line” (Eur J Med Chem, 2016).

assay: Cytotoxicity against mouse B16 cells assessed as decrease in cell viability after 48 hrs by MTT assay; assay type: functional, cell-based; details: B16, 48 h

| SMILES | IC50 [µM] |
| --- | --- |
| OC(c1ccc2ccccc2c1)c1cn(Cc2ccccc2)nn1 (stereo unspecified) | 28.8 |
| CC1(C)OCC(Cn2cc(-c3ccc([N+](=O)[O-])cc3)nn2)O1 (racemic) | > 100 |
| COc1ccc(C(O)c2cn(C[C@H]3COC(C)(C)O3)nn2)c(OC)c1OC (stereo partly specified) | > 100 |
| Cc1ccc(-c2cn(Cc3ccccc3)nn2)cc1 | > 100 |
| CCOC(=O)Cn1cc(-c2ccc3ccccc3c2)nn1 | > 100 |
| COc1ccc(-c2cn(C[C@H]3COC(C)(C)O3)nn2)c(OC)c1OC | > 100 |
| c1ccc(Cn2cc(-c3ccc4ccccc4c3)nn2)cc1 | 3.89 |
| COc1ccc(Cn2cc(-c3ccc([N+](=O)[O-])cc3)nn2)cc1 | 19.1 |
| COc1ccc(C(O)c2cn(C[C@H]3COC(C)(C)O3)nn2)cc1 (stereo partly specified) | > 100 |
| OCCn1cc(-c2ccc3ccccc3c2)nn1 | > 100 |
| COc1ccc(Cn2cc(C(O)c3ccc(C)cc3)nn2)cc1 (stereo unspecified) | > 100 |
| COc1ccc(Cn2cc(C(O)c3ccc(OC)c(OC)c3OC)nn2)cc1 (stereo unspecified) | > 100 |
| CC1(C)OC[C@H](Cn2cc(-c3ccc4ccccc4c3)nn2)O1 | 12 |
| Cc1ccc(C(O)c2cn(CC3COC(C)(C)O3)nn2)cc1 (racemic) | > 100 |
| COc1ccc(-c2cn(C[C@H]3COC(C)(C)O3)nn2)cc1 | > 100 |
| COc1ccc(C(O)c2cn(CCO)nn2)c(OC)c1OC (stereo unspecified) | > 100 |
| COc1ccc(Cn2cc(-c3ccc(C)cc3)nn2)cc1 | 19.5 |
| COc1ccc(-c2cn(Cc3ccccc3)nn2)c(OC)c1OC | 27.5 |
| Cc1ccc(C(O)c2cn(C[C@H]3COC(C)(C)O3)nn2)cc1 (stereo partly specified) | > 100 |
| COc1ccc(Cn2cc(-c3ccc(OC)cc3)nn2)cc1 | > 100 |
| CC1(C)OC[C@H](Cn2cc(C(O)c3ccc([N+](=O)[O-])cc3)nn2)O1 (stereo partly specified) | > 100 |
| COc1ccc(Cn2cc(-c3ccc(C(F)(F)F)cc3)nn2)cc1 | 17.4 |
| CC1(C)OCC(Cn2cc(C(O)c3ccc4ccccc4c3)nn2)O1 (racemic) | 26.9 |

| SMILES | IC50 [µM] |
| --- | --- |
| COc1ccc(C(O)c2cn(CCO)nn2)cc1 (stereo unspecified) | > 100 |
| CC1(C)OCC(Cn2cc(-c3ccc(C(F)(F)F)cc3)nn2)O1 (racemic) | 13.5 |
| FC(F)(F)c1ccc(-c2cn(Cc3ccccc3)nn2)cc1 | > 100 |
| COc1ccc(-c2cn(Cc3ccccc3)nn2)cc1 | > 100 |
| COc1ccc(Cn2cc(-c3ccc(OC)c(OC)c3OC)nn2)cc1 | > 100 |
| OC(c1ccc(C(F)(F)F)cc1)c1cn(Cc2ccccc2)nn1 (stereo unspecified) | > 100 |
| Cc1ccc(-c2cn(CC3COC(C)(C)O3)nn2)cc1 (racemic) | 41.7 |
| Cc1ccc(-c2cn(C[C@H]3COC(C)(C)O3)nn2)cc1 | > 100 |
| CCOC(=O)Cn1cc(-c2ccc([N+](=O)[O-])cc2)nn1 | > 100 |
| Cc1ccc(-c2cn(CCO)nn2)cc1 | > 100 |
| CC1(C)OC[C@H](Cn2cc(-c3ccc([N+](=O)[O-])cc3)nn2)O1 | > 100 |
| CC1(C)OCC(Cn2cc(-c3ccc4ccccc4c3)nn2)O1 (racemic) | 6.6 |
| CCOC(=O)Cn1cc(-c2ccc(OC)c(OC)c2OC)nn1 | > 100 |
| COc1ccc(-c2cn(CCO)nn2)cc1 | > 100 |
| OCCn1cc(-c2ccc(C(F)(F)F)cc2)nn1 | > 100 |
| COc1ccc(Cn2cc(C(O)c3ccc([N+](=O)[O-])cc3)nn2)cc1 (stereo unspecified) | > 100 |
| COc1ccc(Cn2cc(C(O)c3ccc(OC)cc3)nn2)cc1 (stereo unspecified) | > 100 |
| O=[N+]([O-])c1ccc(-c2cn(Cc3ccccc3)nn2)cc1 | 5.12 |
| CC1(C)OCC(Cn2cc(C(O)c3ccc(C(F)(F)F)cc3)nn2)O1 (racemic) | > 100 |
| CCOC(=O)Cn1cc(C(O)c2ccc3ccccc3c2)nn1 (stereo unspecified) | > 100 |
| CC1(C)OC[C@H](Cn2cc(-c3ccc(C(F)(F)F)cc3)nn2)O1 | > 100 |
| COc1ccc(Cn2cc(-c3ccc4ccccc4c3)nn2)cc1 | > 100 |
| Cc1ccc(C(O)c2cn(Cc3ccccc3)nn2)cc1 (stereo unspecified) | > 100 |
